From patent US20240051938A1, “SELECTIVE BRD4-DEGRADER MOLECULES” (Regents of the University of Minnesota, priority 2022, published 2024)
Like-named read-outs stand apart in the source and are kept apart here. Peptide text beside a SMILES is read from it. * marks the point of attachment. Cbz = O=C(OCc1ccccc1)*

Columns and labels:
[1] = target: T1, p38a kinase (Homo sapiens, UniProt Q16539); experiment: Western blot p38a levels in MM.1S cells; type: cell-based; settings: 24-hour time-point or time-course study at 5 μM
T1 construct: endogenous in cells; host or cells: MM.1S
T1 sequence (Q16539 whole entry): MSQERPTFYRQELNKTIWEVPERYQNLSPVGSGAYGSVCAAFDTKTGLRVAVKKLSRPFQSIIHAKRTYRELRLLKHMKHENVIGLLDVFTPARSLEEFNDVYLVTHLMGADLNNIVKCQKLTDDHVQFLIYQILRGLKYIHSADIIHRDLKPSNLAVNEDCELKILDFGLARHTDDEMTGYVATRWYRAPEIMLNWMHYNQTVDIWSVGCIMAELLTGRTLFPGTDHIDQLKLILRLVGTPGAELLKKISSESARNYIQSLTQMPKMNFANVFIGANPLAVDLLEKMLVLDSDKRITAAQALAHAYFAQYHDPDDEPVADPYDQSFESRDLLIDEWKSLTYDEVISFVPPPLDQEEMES
Experimental: (§1) FIG. 4A-4D: Degradation of BRD4 in MM.1S cells. (A) Representative blots for degradation of BRD4 after 24-hour treatment. (B) Quantified densitometry for three biological replicates of blots from (A). (C) Time-course study of BRD4 degradation by dBRD4-BD1. (D) Rescue of BRD4 degradation using pan-BD1, proteasome and neddylation inhibitors, but not pan-BD2 inhibitor, iBET-BD2.
(§2) Western Blotting: MM.1S cells were seeded in 12-well plates at a density of 4×10^6 cells per well and treated with compounds for indicated times. Cells were transferred to 2 mL microcentrifuge tubes and harvested by low-speed centrifugation at 500×g. for 5 minutes. The well was rinsed, and the cell pellet washed twice with ice-cold PBS with centrifuging. The supernatant was carefully decanted, and the cell pellet was resuspended for lysis in 100 μL of RIPA buffer (ThermoFisher Scientific) supplemented with 1× cOmplete Mini Protease (Roche) and stored on ice for 10 minutes. After high-speed centrifugation (10 min at 10,000 X g.), protein concentrations were determined by the BCA assay (ThermoFisher Scientific) and normalized by total protein content.

[2] = target: T2, BRD2 (Homo sapiens, UniProt P25440); experiment: Western blot BRD2 levels in MM.1S cells; type: cell-based
T2 sequence (P25440 whole entry): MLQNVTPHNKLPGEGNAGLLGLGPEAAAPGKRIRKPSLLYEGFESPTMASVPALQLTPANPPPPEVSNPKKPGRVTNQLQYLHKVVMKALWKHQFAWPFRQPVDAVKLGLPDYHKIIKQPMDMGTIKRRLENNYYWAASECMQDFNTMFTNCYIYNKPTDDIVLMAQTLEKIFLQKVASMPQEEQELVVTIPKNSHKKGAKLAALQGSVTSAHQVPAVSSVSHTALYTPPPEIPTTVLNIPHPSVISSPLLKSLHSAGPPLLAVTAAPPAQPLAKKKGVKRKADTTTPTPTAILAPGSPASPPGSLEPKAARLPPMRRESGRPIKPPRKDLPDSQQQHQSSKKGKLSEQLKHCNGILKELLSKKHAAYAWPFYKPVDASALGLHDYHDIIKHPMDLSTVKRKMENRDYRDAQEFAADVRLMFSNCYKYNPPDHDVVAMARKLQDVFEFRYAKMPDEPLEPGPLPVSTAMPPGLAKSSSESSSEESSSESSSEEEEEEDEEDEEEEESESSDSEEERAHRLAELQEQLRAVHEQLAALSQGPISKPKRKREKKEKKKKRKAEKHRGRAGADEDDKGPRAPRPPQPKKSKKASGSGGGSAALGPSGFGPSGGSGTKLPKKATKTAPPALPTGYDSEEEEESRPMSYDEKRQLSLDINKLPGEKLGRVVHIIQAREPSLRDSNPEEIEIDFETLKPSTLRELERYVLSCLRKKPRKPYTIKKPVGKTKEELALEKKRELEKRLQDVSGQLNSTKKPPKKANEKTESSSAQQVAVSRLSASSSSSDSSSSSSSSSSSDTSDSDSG
Experimental: as §1, §2

[3] = test system: MM.1S cells; experiment: 72 hour Alamar blue cytotoxicity assay of MM.1S cells; type: cell-based
Experimental: FIG. 5: 72 hour Alamar blue cytotoxicity assay of MM.1S cells with compounds. Data reported as mean±SD of three independent trials of three replicates each.
Viability Assays: MM. 1 S cells were seeded in 96-well plates at approximately 20 000 cells per well (0.05 mL) and dosed with increasing compound concentrations in the presence of DMSO with three technical replicates per concentration. After incubation for 69 hours at 37° C., 10 μL of the Alamar Blue reagent (Invitrogen) was added to each well and the plates were incubated for 3 hours at 37° C. Fluorescence was determined using a Synergy plate reader (BioTek, Ex.: 560 nm, Em.: 590 nm) and dose-response data were normalized to untreated and blank wells containing 0.05% DMSO in cell culture media. Data analysis was performed using GraphPad Prism.

[4] = target: T3, BRD4 (Homo sapiens, UniProt O60885); experiment: Western blot BRD4 degradation in MV411 cells; type: cell-based; parameters: endogenous in cells; settings: 6 hours, N = 1
[5] = target: BRD4 (Homo sapiens, UniProt O60885+Q96SW2); experiment: TR-FRET ternary-complex formation; type: biochemical
Chain of BRD4 (Homo sapiens, UniProt O60885+Q96SW2) (Q96SW2 whole entry, one chain of several): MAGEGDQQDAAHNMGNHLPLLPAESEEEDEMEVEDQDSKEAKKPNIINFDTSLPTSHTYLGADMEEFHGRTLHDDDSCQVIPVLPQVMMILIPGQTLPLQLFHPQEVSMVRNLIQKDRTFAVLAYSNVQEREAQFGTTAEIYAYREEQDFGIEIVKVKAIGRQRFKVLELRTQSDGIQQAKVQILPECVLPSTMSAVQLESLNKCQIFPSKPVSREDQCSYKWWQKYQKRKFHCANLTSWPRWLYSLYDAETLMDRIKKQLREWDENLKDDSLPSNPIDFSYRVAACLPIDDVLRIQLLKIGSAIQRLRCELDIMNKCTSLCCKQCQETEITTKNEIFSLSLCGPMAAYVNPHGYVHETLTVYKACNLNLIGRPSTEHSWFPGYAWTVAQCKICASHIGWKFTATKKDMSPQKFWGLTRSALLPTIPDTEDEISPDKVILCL

[6] = target: T3, BRD4; experiment: Western blot BRD4 degradation in MM.1S cells; type: cell-based; parameters: endogenous in cells
From the text: as §1
The mixed suspension/adherent cells were subcultured at a 1:10 dilution by decanting suspended cells and dissociating adherent cells from plates in 0.25% trypsin/EDTA (Gibco) with 2 min incubation times. Cell-line authenticity was verified using the short-tandem-repeat (STR)-profiling service provided by ATCC.
as §2

[7] = target: T4, 9xHis-BRD4-BD1 (Homo sapiens, UniProt O60885); experiment: AlphaScreen binding assay with His9-tagged BRD4-BD1 (1% DMSO); settings: 1% v/v DMSO; mean of three independent trials in duplicate; read-out: BRD4-BD1 IC50 (apparent binding)
T4 construct: 30 nM for His9-tagged BRD4-BD1 bromodomain and 50 nM for the biotinylated peptide were used; made in house
Experimental: (B) Alphascreen binding assay with 9xHis-BRD4-BD1, reported as mean±SD of three independent trials performed in duplicate.
The AlphaScreen assay procedure for BRD4-BD1 bromodomain was adapted from the manufacturers protocol (PerkinElmer, USA). […] The biotinylated histone H4 KAc5,8,12,16 peptide was purchased from EpiCypher, with the sequence: Ac-SGRGK(Ac)GGK(Ac)GLGK(Ac)G-GAK(Ac)RHRKVLR-Peg(Biot). All reagents were diluted in the assay buffer (50 mM HEPES-Na+(ChemImpex), 100 mM NaCl (SigmaAldrich), 0.05% CHAPS (RPI), 0.1% BSA (SigmaAldrich), pH 7.4). The final assay concentrations (after the addition of all assay components) of 30 nM for His9-tagged BRD4-BD1 bromodomain and 50 nM for the biotinylated peptide were used. 3-fold serial dilutions were prepared with varying concentrations of the compounds and a fixed protein concentration, keeping the final DMSO concentration at 1% v/v. […] This was followed by the addition of 5 μL of the biotinylated peptide. 5 μL of nickel chelate acceptor beads and 5 μL of streptavidin donor beads were added to each well under low light conditions (<100 lux), to a final concentration of 20 μg/mL. The plate was sealed and incubated at room temperature in the dark for 1 hour. It was then read in AlphaScreen mode using a Tecan Spark plate reader. Each compound was run in two technical replicates, with at least three biological replicates.

[8] = test system: cMyc; experiment: Western blot cMyc expression in MM.1S cells; type: cell-based; settings: compared with previously reported BRD4 degraders
Experimental: as §2

[9] = Solubility observed in AlphaScreen assay; settings: required increased DMSO (1% v/v) in assay
[10] = target: T5, BRD3 (Homo sapiens, UniProt Q15059); experiment: Western blot BRD3 levels in MM.1S cells; type: cell-based
T5 sequence (Q15059 whole entry): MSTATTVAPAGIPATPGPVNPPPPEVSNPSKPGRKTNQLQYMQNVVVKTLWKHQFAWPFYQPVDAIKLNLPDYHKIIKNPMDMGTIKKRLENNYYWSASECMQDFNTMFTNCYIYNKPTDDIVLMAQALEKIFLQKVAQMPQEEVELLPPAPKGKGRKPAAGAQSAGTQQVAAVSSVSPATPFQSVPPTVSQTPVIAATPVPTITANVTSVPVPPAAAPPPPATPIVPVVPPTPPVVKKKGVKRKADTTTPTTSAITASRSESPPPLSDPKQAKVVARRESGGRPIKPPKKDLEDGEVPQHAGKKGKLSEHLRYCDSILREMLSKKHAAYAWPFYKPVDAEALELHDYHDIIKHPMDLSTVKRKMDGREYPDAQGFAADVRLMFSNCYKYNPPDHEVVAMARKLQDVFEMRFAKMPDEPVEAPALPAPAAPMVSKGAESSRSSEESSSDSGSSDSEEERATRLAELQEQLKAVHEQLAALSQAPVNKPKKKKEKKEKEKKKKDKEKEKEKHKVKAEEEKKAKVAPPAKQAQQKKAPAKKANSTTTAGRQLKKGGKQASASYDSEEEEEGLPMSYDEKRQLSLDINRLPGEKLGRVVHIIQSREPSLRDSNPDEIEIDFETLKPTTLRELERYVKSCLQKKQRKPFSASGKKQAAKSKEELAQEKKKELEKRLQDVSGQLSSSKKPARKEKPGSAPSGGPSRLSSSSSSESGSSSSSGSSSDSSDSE
Experimental: as §1, §2

[11] = target: T3, BRD4; settings: BRD4 degradation, 6 hours, N = 1; for DC50: read-out: HEK293 (DC50)
Experimental: (§3) HEK293T cells were grown in a humidified 5% CO2 environment at 37° C. Cells were cultured in DMEM media (Corning) supplemented with 10% fetal-bovine serum (FBS, Cellgro), penicillin (50 IU/mL, Cellgro) and streptomycin (50 μg/mL, Cellgro). Once the adherent cells reached 85% confluency, the media was removed, and cells were treated with 0.25% trypsin/EDTA for 2 min. The trypsin was then neutralized, and the cells were pelleted by centrifugation (4000 g, 5 min) before resuspending in new media and subcultured at a 1:20 ratio.
(§4) HEK293T cells were seeded at 500,000 cells/well in a TC-treated 6-well plate and incubated in a 5% CO2 environment at 37° C. for 18 hours. […] Cells were dosed with compound for incubated times. Media was then removed and the cells were washed gently with cold PBS. To the plate was added 100 μL of RIPA buffer supplemented with 1X Roche cOmplete Mini protease inhibitor cocktail. Using a cell scraper, the cells were removed from the plate into the buffer. The cell lysate was then centrifuged at 14,000 rpm at 4° C. for 5 minutes before lysates were normalized by total soluble protein concentration using BCA protein assay kit (Peirce). Normalized samples were mixed with 4× NuPAGE LDS loading buffer (Invitrogen) and 10× reducing agent (Invitrogen), and heated at 95° C. for 10 minutes before separation on 3-8% Tris-Acetate gels. Proteins were transferred to PVDF membranes for 12 minutes on a BioRad Trans-Blot Turbo. Membranes were dried, cut, blocked in TBS-T containing 5% nonfat dry milk, and subsequently incubated with TB S-T containing 5% nonfat dry milk for 16 hours at 4° C. with an additional 2 hours at ambient temperature, with primary antibodies at dilutions listed below. After the membranes were washed five times with TBS-T, they were incubated with secondary antibodies for 2 h. at room temperature. Membranes were washed five times in TBS-T and treated with SuperSignal West Dura substrates (Thermo) for 1 minute and imaged using a LiCor Odyssey Fc. Membranes were then stained for total protein levels with SimplyBlue SafeStain (Invitrogen, Ref 465034) to confirm transfer and loading homogeneity.
(§5) The DCmax and DC50 values were determined via densitometry analysis from western blot data. Curve fitting analysis was conducted via non-linear regression using Graphpad PRISM.

[12] = target: T5, BRD3; settings: cited from earlier work
[13] = target: T2, BRD2; settings: cited from earlier work
[14] = target: T3, BRD4; experiment: cell-based; settings: HEK293, read-out: HEK293 (Dmax)
Experimental: as §3, §4, §5

[15] = target: T3, BRD4; experiment: Rescue of dBRD4-BD1-induced BRD4 degradation in MM.1S cells (competition experiments); type: cell-based; parameters: endogenous in cells; settings: competition with dBRD4-BD1
Experimental: Western Blotting: MM.1S cells were seeded in 12-well plates at a density of 4×10^6 cells per well and treated with compounds for indicated times. Cells were transferred to 2 mL microcentrifuge tubes and harvested by low-speed centrifugation at 500×g. for 5 minutes. The well was rinsed, and the cell pellet washed twice with ice-cold PBS with centrifuging. The supernatant was carefully decanted, and the cell pellet was resuspended for lysis in 100 μL of RIPA buffer (ThermoFisher Scientific) supplemented with 1× cOmplete Mini Protease (Roche) and stored on ice for 10 minutes. After high-speed centrifugation (10 min at 10,000 X g.), protein concentrations were determined by the BCA assay (ThermoFisher Scientific) and normalized by total protein content. Normalized samples were mixed with 4× NuPAGE LDS loading buffer (Invitrogen) and 10× reducing agent (Invitrogen), and heated at 95° C. for 10 minutes before separation on 3-8% Tris-Acetate gels. Proteins were transferred to PVDF membranes for 12 minutes on a BioRad Trans-Blot Turbo. Membranes were dried, blocked in TBS-T containing 5% nonfat dry milk, and subsequently incubated with TBS-T containing 5% nonfat dry milk for 4 hours at room temperature, or 16 hours at 4° C., with primary antibodies at dilutions listed below. After the membranes were washed five times with TBS-T, they were incubated with secondary antibodies for 2 hours. at room temperature. Membranes were washed five times in TBS-T and treated with SuperSignal West Dura substrates (Thermo) for 1 minute and imaged using a LiCor Odyssey Fc.

[16] = target: T3, BRD4; experiment: Competition of MZ1-induced BRD4 degradation with pan-BD1 or pan-BD2 inhibitors; type: cell-based; parameters: endogenous in cells; host or cells: HEK293T; settings: competition with pan-BET degrader MZ1

In the case of `Cc1ccc(C(C)C)cc1Oc1nccc(-c2c(-c3ccc(C(F)(F)F)cc3)ncn2C2CCN(CCOCCOCCNC(=O)COc3cccc4c3C(=O)N(C3CCC(=O)NC3=O)C4=O)CC2)n1` (centres unmarked) [dBRD4-BD1], the “degradation of p38a” value [1] is reported as “not observed”, the “BRD2 level at concentrations where BRD4 was degraded” value [2] is reported as “upregulated” and the “degradation of BRD2” value ([2]; 24-hour treatment) is reported as “not observed”. For the same compound, the cytotoxicity [3] was “lower observed cytotoxicity”, the DC50 [4] was 14 nM and the “MV411 (Dmax)” value [4] was 85%. For the same compound, the “ternary-complex formation by TR-FRET” value [5] was “moderate ternary-complex formation”, the “BRD4 degradation Dmax” value ([6]; 24-hour treatment) was 23% and the DC50 ([6]; 24-hour treatment) was 280 nM. The “concentration above which BRD4 degradation diminished (hook effect)” value ([6]; 24-hour treatment) was > 5 µM, the “time to maximal BRD4 degradation” value ([6]; time-course study at 5 μM) was 8 h and the IC50 [7] was 1360 nM. The “effect on cMyc expression” value [8] was “weaker effect on cMyc expression”, the solubility [9] was “poor solubility” and the “BRD3 level at concentrations where BRD4 was degraded” value [10] was “upregulated”. The “degradation of BRD3” value ([10]; 24-hour treatment) was “not observed”, the “HEK293 (Dmax)” value [11] was 100% and the DC50 [11] was 500 nM.

In the case of `CC(=O)N[C@H](C(=O)N1C[C@H](O)C[C@H]1C(=O)NCc1ccc(-c2scnc2C)cc1)C(C)(C)SCCCCCCNC(=O)C[C@@H]1N=C(c2ccc(Cl)cc2)c2c(sc(C)c2C)-n2c(C)nnc21` [AT1], the “concentration of BRD3 upon BRD4 degradation” value [12] is given as “remain unchanged” and the “concentration of BRD2 upon BRD4 degradation” value [13] is given as “remain unchanged”.

For `COC(=O)C[C@@H]1N=C(c2ccc(Cl)cc2)c2c(sc(C(=O)NCCCCCNc3cccc4c3C(=O)N(C3CCC(=O)NC3=O)C4=O)c2C)-n2c(C)nnc21` (some centres unmarked) [ZXH-3-26], the “concentration of BRD3 upon BRD4 degradation” value [12] is listed as “remain unchanged” and the “concentration of BRD2 upon BRD4 degradation” value [13] is listed as “remain unchanged”.

In the case of `Cc1ccc(C(C)C)cc1Oc1nccc(-c2c(-c3ccc(C(F)(F)F)cc3)ncn2C2CCN(CCOCCOCCNC(=O)CN(C)c3cccc4c3C(=O)N(C3CCC(=O)NC3=O)C4=O)CC2)n1` (centres unmarked) [Example 4], the Dmax [14] is reported as 84% and the DC50 [11] is reported as 105 nM.

With `NS(=O)(=O)OC[C@@H]1C[C@@H](n2ccc3c(N[C@H]4CCc5ccccc54)ncnc32)C[C@@H]1O` [MLN4924] the “rescue of BRD4 degradation by dBRD4-BD1” value [15] was “rescue of BRD4 degradation was observed”.

Work on `Cc1ccc(C(C)C)cc1Oc1nccc(-c2c(-c3ccc(C(F)(F)F)cc3)ncn2C2CCN(CCOCCOCCNC(=O)CNc3cccc4c3C(=O)N(C3CCC(=O)NC3=O)C4=O)CC2)n1` (centres unmarked) [Example 5] yielded a Dmax [14] of 60% and a DC50 [11] of 290 nM.

With `CC(C)C[C@@H](C=O)NC(=O)[C@H](CC(C)C)NC(=O)[C@H](CC(C)C)NC(=O)OCc1ccccc1` [MG-132] (Cbz-Leu-Leu-Leu-aldehyde) the “rescue of BRD4 degradation by dBRD4-BD1” value [15] was “rescue of BRD4 degradation was observed”.

With `CC(=O)Nc1c(F)cc(C(=O)N[C@H]2CC[C@H](O)CC2)cc1O[C@@H](C)c1ccccc1` [iBET-BD2] the “prevention of MZ1-induced BRD4 degradation by competitor” value [16] was “neither BD1 nor BD2 inhibition was able to prevent BRD4 degradation” and the “rescue of BRD4 degradation by dBRD4-BD1” value [15] was “no effect”.

Compound `Cc1ccc(C(C)C)cc1Oc1nccc(-c2c(-c3ccc(C(F)(F)F)cc3)ncn2C2CCN(CCNC(=O)COc3cccc4c3C(=O)N(C3CCC(=O)NC3=O)C4=O)CC2)n1` (centres unmarked) [Example 6] has a Dmax [14] of 95% and a DC50 [11] of 810 nM.
